In patent publication US8143374B2, “Polypeptide derivatives of parathyroid hormone (PTH)” (The General Hospital Corporation, priority 2006, dated 2012):
Where two headings read alike, the source gives them in different places. Where a SMILES comes first, the peptide text is derived from it. Where no end group is shown, it is not given here. [ ]: non-standard residue; d: D form. Cha = N[C@@H](CC1CCCCC1)C(=O)O

Key:
[1] = Circular dichroism spectroscopy, helical residues per peptide chain; format: physicochemical; conditions: calculated from [θ]222
Method: Circular Dichroism—CD spectra were obtained on a JASCO J-600 spectropolarimeter at 20° C. Four spectra were averaged and the data smoothed by the JASCO software. The instrument was calibrated with ammonium (+)-10-camphorsulfonate. Peptide concentrations were verified from the absorption at 280 nm, using an extinction coefficient of 5700 M^−1 for the single tryptophan. Data are expressed as the number of helical residues per peptide chain, as calculated from −[θ]222×30/28,000, where [θ]222 is the mean residue elipticity ([θ]) at 222 nm, as was described previously (Barbier, J. R., et al. (2005) J Biol Chem. 280:23771-23777).

[2] = target: T1, PTHR-delNt (Homo sapiens, UniProt Q03431, DEL24-181); assay: Competition binding in COS-7 cell membranes with 125I-[Aib1,3,M]PTH(1-15)NH2 tracer; conditions: for IC50: COS-7 membranes cotransfected with negative-dominant Gαs; for reduction (alteration) of binding affinity for PTHR-delNt relative to parent peptide: versus the respective parent peptide
T1 construct: expressed in transfected cells; host or cells: COS-7 cells, transient co-transfection; membranes prepared
T1 sequence (Q03431 with tags, fused parts or gaps DEL24-181): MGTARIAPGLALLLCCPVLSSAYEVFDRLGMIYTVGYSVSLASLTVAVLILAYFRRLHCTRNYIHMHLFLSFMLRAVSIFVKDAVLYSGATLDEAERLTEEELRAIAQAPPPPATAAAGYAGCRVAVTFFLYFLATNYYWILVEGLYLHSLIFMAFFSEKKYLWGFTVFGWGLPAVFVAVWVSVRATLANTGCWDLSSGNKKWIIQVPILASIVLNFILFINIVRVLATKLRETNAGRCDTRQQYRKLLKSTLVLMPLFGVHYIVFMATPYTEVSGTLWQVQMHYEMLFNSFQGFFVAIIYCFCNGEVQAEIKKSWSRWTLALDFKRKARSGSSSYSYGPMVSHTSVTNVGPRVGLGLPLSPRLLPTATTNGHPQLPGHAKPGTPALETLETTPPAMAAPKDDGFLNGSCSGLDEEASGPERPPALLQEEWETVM
Method: PTHR-delNt is a derivative of the human PTHR that is deleted for most (Ala^24-Arg^181) of the amino-terminal extracellular domain (Shimizu, M., et al. (2001) Endocrinology 142:3068-3074). This PTHR construct was expressed in COS-7 cells via transient DNA transfection. For cAMP assays, the cells were transfected in 24-well plates using 0.2 μg of plasmid DNA and 0.6 μl of Fugene-6 reagent (Roche Diagnostics, Indianapolis Ind.) per well, and assays were performed on the intact cells three to four days after transfection. For binding assays, cell membranes were prepared from transfected COS-7 cells. To increase the maximal binding of ^125I-[Aib^1,3,M]PTH(1-15)NH2 to PTHR-delNt in these membranes, the cells were cotransfected with a negative dominant mutant Gαs protein (Gαs^ND). This mutant Gαs subunit is thought to couple to cognate receptors, and thus stabilize high affinity receptor conformations, more efficiently than does wild-type Gαs, without increasing basal cAMP levels (Berlot, C. H. (2002) J Biol Chem 277:21080-5). A precursor of this mutant Gαs, Gαs(α3β5), was recently used to increase binding of ^125I-[Aib^1,3,M]PTH(1-15)NH2 to PTHR-delNt in COS-7 cell membranes (Dean, T., (2006) Mol Endocrinol 20:931-942). Gαs^ND, which contains the same five amino acid replacement of corresponding Gαi residues in the α3β5 loop as Gαs(α3β5), plus the point mutations of Gly^226 to Ala, which increases affinity for Gβ/γ, and Ala^366 to Ser, which decreases affinity for GDP, yields approximately two-fold higher levels of specific binding of ^125I-[Aib^1,3,M]PTH(1-15)NH2 than does Gαs(α3β5) (data not shown). For the current membrane preparations, COS-7 cells were co-transfected in six-well plates using 1 μg of each plasmid DNA encoding PTHR-delNt and Gαs^ND, and 6 μl of Fugene-6 reagent (Roche Diagnostics, Indianapolis Ind.) per well. Cells were harvested three days after transfection, and membranes were prepared as described (Dean, T., et al. (2006) Mol Endocrinol 20:931-942).
Receptor binding—Binding to the wild-type human PTHR in intact HKRK-B7 cells and ROS 17/2.8 cells was assessed using ^125I-PTH(1-34) as a tracer radioligand, as described (Shimizu, M., (2001) Endocrinology 142:3068-3074). In brief, the cells in 24-well plates (about 500,000 cells per well) were incubated in binding buffer containing radioligand (about 100,000 cpm per well) with or without unlabeled peptide ligand (3×10^−9 to 1×10^−5 M) for four hours at 15° C. The binding mixture was then removed by aspiration, the cells were rinsed three times with binding buffer, lysed in 1 M NaOH, and the entire lysate was counted for gamma-irradiation in a gamma counter. Binding to PTHR-delNt in COS-7 cell membranes was assessed in 96-well, vacuum filtration plates (Multiscreen-Durapore HV, […] membranes, Millipore Corp., Millford, Mass.) using ^125I-[Aib^1,3,M]PTH(1-15)NH2 as a tracer radioligand, as described (Dean, T., (2006) Mol Endocrinol 20:931-942). In brief, cell membranes (20 μg/well) were incubated in membrane binding buffer containing radioligand (30,000 cpm/well) with or without unlabeled peptide ligand (3×10^−9 to 1×10^−5 M) for 90 minutes at 21° C. The plates were then subject to rapid vacuum filtration, the filters were washed once with buffer, detached from the plate and counted for gamma-irradiation in a gamma counter. Non-specific binding was defined as the binding observed in the presence of 1×10^−6 M PTH(1-31)NH2 for HKRK-B7 and ROS 17/2.8 cells, and 1×10^−6 M [Aib^1,3,M]PTH(1-15)NH2 for PTHR-delNt. Specifically bound radioactivity was calculated as a percentage of the radioactivity specifically bound in the absence of competing ligand. […]

[3] = [Ala1,Arg19]hPTH(1-31)NH2 analogs
[4] = [Ala1,Arg19]hPTH(1-31)NH2 analogs, read-out: PTHR-delNT (COS-7) IC50
[5] = hPTH(1-31)NH2 analogs, read-out: PTHR-delNT (COS-7) IC50

Row | CD helical residues [1, 3] | IC50 [2, 4] [µM] | CD helical residues ([1]; hPTH(1-31)NH2 analogs) | IC50 [2, 5] [µM] | Compound | effect on binding to PTHR-delNt (in words) ([2]; COS-7 membranes) | reduction (alteration) of binding affinity for PTHR-delNt relative to parent peptide ([2]; COS-7 membranes) | IC50 ([2]; PTHR-delNT (COS-7) IC50, [Ala1,Arg19]hPTH(1-31)NH2 analogs) [µM]
1 | 8 | 0.226 ± 0.039 | – | – | CC[C@H](C)[C@H](NC(=O)[C@H](CCC(=O)O)NC(=O)[C@H](CO)NC(=O)[C@@H](NC(=O)[C@H](C)N)C(C)C)C(=O)N[C@@H](CCC(N)=O)C(=O)N[C@@H](CC(C)C)C(=O)N[C@@H](CCSC)C(=O)N[C@@H](Cc1c[nH]cn1)C(=O)N[C@@H](CC(N)=O)C(=O)N[C@@H](CC(C)C)C(=O)NCC(=O)N[C@@H](CCCCN)C(=O)N[C@@H](Cc1c[nH]cn1)C(=O)N[C@@H](CC(C)C)C(=O)N[C@@H](CC(N)=O)C(=O)N[C@@H](CO)C(=O)N[C@@H](CCSC)C(=O)N[C@@H](CCCNC(=N)N)C(=O)N[C@@H](CCCNC(=N)N)C(=O)N[C@H](C(=O)N[C@@H](CCC(=O)O)C(=O)N[C@@H](Cc1c[nH]c2ccccc12)C(=O)N[C@@H](CC(C)C)C(=O)N[C@@H](CCCNC(=N)N)C(=O)N[C@@H](CCCCN)C(=O)N[C@@H](CCCCN)C(=O)N[C@@H](CC1CCCCC1)C(=O)N[C@@H](CCC(N)=O)C(=O)N[C@@H](CC(=O)O)C(=O)N[C@H](C(N)=O)C(C)C)C(C)C [Leu^28→Cha] (H-AVSEIQLMHNLGKHLNSMRRVEWLRKK[Cha]QDV-NH2; N-terminus assumed) | – | – | –
2 | 9 | 0.564 ± 0.172 | – | – | CC[C@H](C)[C@H](NC(=O)[C@H](CCC(=O)O)NC(=O)[C@H](CO)NC(=O)[C@@H](NC(=O)[C@H](C)N)C(C)C)C(=O)N[C@@H](CCC(N)=O)C(=O)N[C@@H](CC(C)C)C(=O)N[C@@H](CCSC)C(=O)N[C@@H](Cc1c[nH]cn1)C(=O)N[C@@H](CC(N)=O)C(=O)N[C@@H](CC(C)C)C(=O)NCC(=O)N[C@@H](CCCCN)C(=O)N[C@@H](Cc1c[nH]cn1)C(=O)N[C@@H](CC(C)C)C(=O)N[C@@H](CC(N)=O)C(=O)N[C@@H](CO)C(=O)N[C@@H](CCSC)C(=O)N[C@@H](CCCNC(=N)N)C(=O)N[C@@H](CCCNC(=N)N)C(=O)N[C@@H](CC1CCCCC1)C(=O)N[C@@H](CCC(=O)O)C(=O)N[C@@H](Cc1c[nH]c2ccccc12)C(=O)N[C@@H](CC(C)C)C(=O)N[C@@H](CCCNC(=N)N)C(=O)N[C@@H](CCCCN)C(=O)N[C@@H](CCCCN)C(=O)N[C@@H](CC(C)C)C(=O)N[C@@H](CCC(N)=O)C(=O)N[C@@H](CC(=O)O)C(=O)N[C@H](C(N)=O)C(C)C [Val^21→Cha] (H-AVSEIQLMHNLGKHLNSMRR[Cha]EWLRKKLQDV-NH2; N-terminus assumed) | – | – | –
3 | 8 | 0.867 ± 0.402 | – | – | CC[C@H](C)[C@H](NC(=O)[C@H](CCC(=O)O)NC(=O)[C@H](CO)NC(=O)[C@@H](NC(=O)[C@H](C)N)C(C)C)C(=O)N[C@@H](CCC(N)=O)C(=O)N[C@@H](CC(C)C)C(=O)N[C@@H](CCSC)C(=O)N[C@@H](Cc1c[nH]cn1)C(=O)N[C@@H](CC(N)=O)C(=O)N[C@@H](CC(C)C)C(=O)NCC(=O)N[C@@H](CCCCN)C(=O)N[C@@H](Cc1c[nH]cn1)C(=O)N[C@@H](CC(C)C)C(=O)N[C@@H](CC(N)=O)C(=O)N[C@@H](CO)C(=O)N[C@@H](CCSC)C(=O)N[C@@H](CCCNC(=N)N)C(=O)N[C@@H](CCCNC(=N)N)C(=O)N[C@H](C(=O)N[C@@H](CCC(=O)O)C(=O)N[C@@H](CC1CCCCC1)C(=O)N[C@@H](CC(C)C)C(=O)N[C@@H](CCCNC(=N)N)C(=O)N[C@@H](CCCCN)C(=O)N[C@@H](CCCCN)C(=O)N[C@@H](CC(C)C)C(=O)N[C@@H](CCC(N)=O)C(=O)N[C@@H](CC(=O)O)C(=O)N[C@H](C(N)=O)C(C)C)C(C)C [Trp^23→Cha] (H-AVSEIQLMHNLGKHLNSMRRVE[Cha]LRKKLQDV-NH2; N-terminus assumed) | little or no effect on binding to PTHR-delNt | three-fold or less | –
4 | – | – | 10 | 1.54 | SVSEIQLMHNLGKHLNSMERVEWLRKKLQAV-NH2 [Asp^30→Ala] | – | – | –
5 | – | – | 10 | 4.58 | SVSEIQLMHNLGKHLNAMERVEWLRKKLQDV-NH2 [Ser^17→Ala] | – | – | –

Row | Compound | CD helical residues [1, 3] | IC50 [2, 4] [µM] | CD helical residues ([1]; hPTH(1-31)NH2 analogs) | IC50 [2, 5] [µM] | effect on binding to PTHR-delNt (in words) ([2]; COS-7 membranes) | reduction (alteration) of binding affinity for PTHR-delNt relative to parent peptide ([2]; COS-7 membranes) | IC50 ([2]; PTHR-delNT (COS-7) IC50, [Ala1,Arg19]hPTH(1-31)NH2 analogs) [µM]
6 | CC[C@H](C)[C@H](NC(=O)[C@H](CCC(=O)O)NC(=O)[C@H](CO)NC(=O)[C@@H](NC(=O)[C@H](C)N)C(C)C)C(=O)N[C@@H](CCC(N)=O)C(=O)N[C@@H](CC(C)C)C(=O)N[C@@H](CCSC)C(=O)N[C@@H](Cc1c[nH]cn1)C(=O)N[C@@H](CC(N)=O)C(=O)N[C@@H](CC(C)C)C(=O)NCC(=O)N[C@@H](CCCCN)C(=O)N[C@@H](Cc1c[nH]cn1)C(=O)N[C@@H](CC(C)C)C(=O)N[C@@H](CC(N)=O)C(=O)N[C@@H](CO)C(=O)N[C@@H](CCSC)C(=O)N[C@@H](CCCNC(=N)N)C(=O)N[C@@H](CCCNC(=N)N)C(=O)N[C@H](C(=O)N[C@@H](CCC(=O)O)C(=O)N[C@@H](Cc1c[nH]c2ccccc12)C(=O)N[C@@H](CC(C)C)C(=O)N[C@@H](CC1CCCCC1)C(=O)N[C@@H](CCCCN)C(=O)N[C@@H](CCCCN)C(=O)N[C@@H](CC(C)C)C(=O)N[C@@H](CCC(N)=O)C(=O)N[C@@H](CC(=O)O)C(=O)N[C@H](C(N)=O)C(C)C)C(C)C [Arg^25→Cha] (H-AVSEIQLMHNLGKHLNSMRRVEWL[Cha]KKLQDV-NH2; N-terminus assumed) | 9 | – | – | – | – | approximately five- to seven-fold | 2.71 ± 1.31
